# Assay results as given in patent US9499601B2, “Molecular probe for sphingolipids” (Agency for Science, Technology and Research, priority 2006, dated 2016).
# Where no end group is shown, it is not given here.
# B1: Lysenin: sphingomyelin-binding protein toxin from earthworm (protein, UniProt O18423 1-297, looked up)
# Lysenin: MSAKAAEGYEQIEVDVVAVWKEGYVYENRGSTSVDQKITITKGMKNVNSETRTVTATHSIGSTISTGDAFEIGSVEVSYSHSHEESQVSMTETEVYESKVIEHTITIPPTSKFTRWQLNADVGGADIEYMYLIDEVTPIGGTQSIPQVITSRAKIIVGRQIILGKTEIRIKHAERKEYMTVVSRKSWPAATLGHSKLFKFVLYEDWGGFRIKTLNTMYSGYEYAYSSDQGGIYFDQGTDNPKQRWAINKSLPLRHGDVVTFMNKYFTRSGLCYDDGPATNVYCLDKREDKWILEVVG
# What was measured:
# [1] = tested on: detergent resistant membrane fractions from human neuroblastomas, SH-SY5Y; assay: Dot blot binding to isolated DRM density-gradient fractions; details: fractions 1-12, 1 top (detergent insoluble)
# [2] = Lipid-protein overlay (fat blot); format: binding; details: Sphingostrips, relatively low amounts of lipids (100 nmole equivalents)
# neuroblastoma cells = assay: Live-cell uptake after glycosphingolipid depletion with Fumonisin B1; format: cell-based, human; details: 10 μM FB1
# [3] = tested on: liposomes of raft-like composition (SM:Ch:POPC) with or without GM1, GD1a, GCB; POPC liposomes; assay: Liposome binding, fluorescence retained after centrifugal filtration; details: control
# SH-SY5Y neuroblastoma = assay: Live-cell uptake under cholesterol depletion (MβCD); format: cell-based, human; details: only after 2 h of cholesterol depletion
# [4] = Lipid-protein overlay (fat blot); format: binding, bovine
# [5] = Lipid-protein overlay (fat blot); format: binding
# [6] = Lipid-protein overlay (fat blot); format: binding; remark: listed apart in the source
# [7] = Lipid-protein overlay (fat blot); format: binding; remark: listed apart in the source
# [8] = tested on: Drosophila c6 neuronal cells; assay: Labelling of Drosophila c6 neuronal cells with SBD, SBD* and SBD^scr peptides; format: cell-based
# Drosophila c6 cells = assay: Cholesterol depletion measured with Amplex Red Cholesterol Assay kit; format: cell-based; details: for reduction of cholesterol: 10 mM, 30 min, whole cell lysates
# Protocol: Cholesterol depletion and overload: Cells were incubated in 4 mM or 10 mM Methyl-β-cyclo-dextrin (MβCD) (Sigma, USA) for 30 min in serum-free medium, and washed. AMPLEX RED™ Cholesterol Assay kit (Invitrogen) was used to measure cholesterol concentrations in cell extracts before OPTIPREP™ gradient formation and later on DRM fractions generated. For cholesterol excess, 10 mM MβCD-cholesterol-complexes were prepared as described previously and incubated with cells at 25° C. for 30 min before labelling. After treatment cells were further incubated in complete medium with FBS.
# Drug treatments: For cholesterol depletion cells were incubated in 10 mM Methyl-b-cyclo-dextrin (MbCD) (Sigma, USA) for 30 min in serum-free medium, and washed. AMPLEX RED™ Cholesterol Assay kit (Invitrogen) was used to measure cholesterol concentrations in cell extracts before OPTIPREP™ gradient formation and later on DRM fractions generated.
# Treatments that inhibit cholesterol synthesis or that remove cholesterol from membranes are known to disrupt lipid rafts. Methyl-β-cyclo-dextrin (MβCD) was used to deplete Drosophila c6 (FIG. 13) and neuroblastoma cells (data not shown) of cholesterol and related sterols (see Methods), and looked at the effect on SBD binding. First, the effectiveness of the MβCD treatment was tested by measuring total cholesterol levels using the AMPLEX RED™ kit (Invitrogen). On c6 cells, cholesterol was reduced by 42% after 30 min, and the distribution of the remaining cholesterol became more uniform across the density gradient (FIG. 13C).
# [9] = peptide at higher concentrations (20 μM)
# [10] = peptide at higher concentrations (20 μM), listed as mutated peptide
# [11] = spotted strips, 1000-2000 nmole equivalents lipid
# [12] = spotted strips, 1000-2000 nmole equivalents lipid, listed as scrambled version of the peptide
molecule,measurement,setting,value
CtxB [reference compound],binding to density-gradient fractions (dot blot),[1],typical two-peak distribution
same,interaction with GM1,[2],recognize
same,uptake after Fumonisin B1 (FB1) treatment,neuroblastoma cells,not affected
CtxB-Alexa594,retention on GM1 liposomes compared with GD1a or no glycolipid,[3],retained more strongly
same,uptake under cholesterol depletion,SH-SY5Y neuroblastoma,reduced rate of uptake
DAEFAHDSGAEVHHQELVFFAEDVG [SBD**-myc],interaction with galactocerebrosides,[4]; peptide at low concentrations,interacted
same,interaction with GD1b,[5]; peptide at low concentrations,very weakly
same,interaction with SM,[6]; peptide at 5 μM,fails to show any interaction
same,interaction with SM,[6]; [9],fails to show any interaction
same,interaction with SM,[6]; [10],not
same,interaction with GD1a,[7]; peptide at 5 μM,fails to show any interaction
same,interaction with GD1a,[7]; [9],only weakly interacts
same,interaction with GD1a,[7]; [10],bound very weakly
"FYHDESEFGHAVEQFGRDVEAVHDL (not fully specified; also: fluorophore, identity and site not given here) [SBD^scr]",internalized punctae (number and intensity),"[8]; Oregon Green conjugates, 10 μM each",much reduced
same,concentration needed for binding to cells,[8]; c6 cells (FIG. 1B),≥ 50 µM
FYHDESEFGHAVEQFGRDVEAVHDL [SBD-scr-myc],interaction with galactocerebrosides,[4]; [11],bind
same,interaction with GM1,[2]; listed as SBD scr-myc,interact
same,interaction with GM1,[2]; listed as SBD-scr,showed signal
same,interaction with GD1b,[5]; [11],bind
same,interaction with GD1b,[5]; [12],interacted approximately as well
same,interaction with sphingomyelin,[6]; [11],interacted approximately as well
same,interaction with GD1a,[7]; [11],bind
same,interaction with GD1a,[7]; [12],interacted approximately as well
Methyl-β-cyclo-dextrin [MβCD],reduction of cholesterol,Drosophila c6 cells,42%
same,reduction of cholesterol,Drosophila c6 cells; listed as M[…]CD,over 40%
same,depletion of total cholesterol,Drosophila c6 cells; Example 1,40%
Transferrin-Alexa594: marker of clathrin-mediated uptake,uptake after Fumonisin B1 (FB1) treatment,neuroblastoma cells,not significantly altered
same,uptake after Fumonisin B1 (FB1) treatment,neuroblastoma cells; listed as Tfr,essentially unaltered
B1,binding to density-gradient fractions (dot blot),[1],bound to non-DRM fractions
same,interaction with Sphingomyelin (spot 5),[6]; Sphingostrips,recognize
